ChEMBL document CHEMBL1201862, “PubChem BioAssay data set” (2004)
The source made the active and inactive calls.

How the values were obtained:
[1] = biological target: ORF 73 (Human herpesvirus 8, UniProt O40947); experiment: KSHV LANA DNA-binding disruption – biochemical, fluorescence polarization, cherry-picked samples, dose response (AID 504725); parameters: species or system Human gammaherpesvirus 8;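 note: fluorescence polarization of a labeled DNA duplex reporting LANA DNA binding; potency is for inhibitors that block LANA binding to the DNA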
ORF 73, sequence (O40947 whole entry): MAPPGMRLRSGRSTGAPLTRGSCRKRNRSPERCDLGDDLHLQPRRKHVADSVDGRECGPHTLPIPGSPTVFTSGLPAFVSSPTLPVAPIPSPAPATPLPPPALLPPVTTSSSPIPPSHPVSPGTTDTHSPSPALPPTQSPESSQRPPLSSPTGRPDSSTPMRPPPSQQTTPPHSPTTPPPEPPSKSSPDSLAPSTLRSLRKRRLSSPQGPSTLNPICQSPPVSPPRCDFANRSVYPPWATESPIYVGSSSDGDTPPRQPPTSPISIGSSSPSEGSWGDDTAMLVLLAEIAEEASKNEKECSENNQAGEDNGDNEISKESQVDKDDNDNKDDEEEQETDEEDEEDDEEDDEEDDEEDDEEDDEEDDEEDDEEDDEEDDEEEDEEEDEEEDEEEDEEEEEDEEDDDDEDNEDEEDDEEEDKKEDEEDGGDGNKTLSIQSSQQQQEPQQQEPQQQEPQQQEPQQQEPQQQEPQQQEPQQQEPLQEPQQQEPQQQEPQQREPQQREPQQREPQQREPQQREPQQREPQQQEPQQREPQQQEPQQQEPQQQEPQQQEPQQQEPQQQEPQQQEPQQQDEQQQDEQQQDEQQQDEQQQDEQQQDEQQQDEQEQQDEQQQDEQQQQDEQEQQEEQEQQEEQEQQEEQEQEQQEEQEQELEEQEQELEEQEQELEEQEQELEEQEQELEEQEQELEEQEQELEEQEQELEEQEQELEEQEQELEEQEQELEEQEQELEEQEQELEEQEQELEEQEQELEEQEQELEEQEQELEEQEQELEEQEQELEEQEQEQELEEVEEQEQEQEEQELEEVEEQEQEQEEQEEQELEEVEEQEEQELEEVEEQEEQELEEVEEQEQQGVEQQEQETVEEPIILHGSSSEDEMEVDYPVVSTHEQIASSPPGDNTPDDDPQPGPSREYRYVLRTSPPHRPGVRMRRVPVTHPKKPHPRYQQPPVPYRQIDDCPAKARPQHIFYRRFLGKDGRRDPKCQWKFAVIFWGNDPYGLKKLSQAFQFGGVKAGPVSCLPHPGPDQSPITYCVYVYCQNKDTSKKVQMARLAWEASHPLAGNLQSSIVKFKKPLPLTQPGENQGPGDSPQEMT

[2] = biological target: Induced myeloid leukemia cell differentiation protein Mcl-1 (Homo sapiens, UniProt Q07820); type: functional
Induced myeloid leukemia cell differentiation protein Mcl-1, sequence (Q07820 whole entry): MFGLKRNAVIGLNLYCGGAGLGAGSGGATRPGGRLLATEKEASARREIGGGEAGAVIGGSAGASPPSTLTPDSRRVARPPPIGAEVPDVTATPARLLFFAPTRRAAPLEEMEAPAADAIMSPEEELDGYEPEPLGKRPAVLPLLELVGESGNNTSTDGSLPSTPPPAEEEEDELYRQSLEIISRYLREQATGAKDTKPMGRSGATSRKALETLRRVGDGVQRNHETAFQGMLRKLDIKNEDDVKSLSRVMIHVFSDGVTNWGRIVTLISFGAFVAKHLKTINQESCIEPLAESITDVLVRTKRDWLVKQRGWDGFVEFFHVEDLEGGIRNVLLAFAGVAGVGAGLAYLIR

[3] = biological target: Dual specificity tyrosine-phosphorylation-regulated kinase 1A (Rattus norvegicus, UniProt Q63470); type: biochemical, Homo sapiens
[4] = biological target: T1, 1-phosphatidylinositol 4,5-bisphosphate phosphodiesterase beta-3 (Homo sapiens, UniProt Q01970); experiment: Fluorescence-based biochemical high throughput dose response assay to identify inhibitors of phospholipase C isozymes (PLC-B3).
T1 sequence (Q01970 whole entry): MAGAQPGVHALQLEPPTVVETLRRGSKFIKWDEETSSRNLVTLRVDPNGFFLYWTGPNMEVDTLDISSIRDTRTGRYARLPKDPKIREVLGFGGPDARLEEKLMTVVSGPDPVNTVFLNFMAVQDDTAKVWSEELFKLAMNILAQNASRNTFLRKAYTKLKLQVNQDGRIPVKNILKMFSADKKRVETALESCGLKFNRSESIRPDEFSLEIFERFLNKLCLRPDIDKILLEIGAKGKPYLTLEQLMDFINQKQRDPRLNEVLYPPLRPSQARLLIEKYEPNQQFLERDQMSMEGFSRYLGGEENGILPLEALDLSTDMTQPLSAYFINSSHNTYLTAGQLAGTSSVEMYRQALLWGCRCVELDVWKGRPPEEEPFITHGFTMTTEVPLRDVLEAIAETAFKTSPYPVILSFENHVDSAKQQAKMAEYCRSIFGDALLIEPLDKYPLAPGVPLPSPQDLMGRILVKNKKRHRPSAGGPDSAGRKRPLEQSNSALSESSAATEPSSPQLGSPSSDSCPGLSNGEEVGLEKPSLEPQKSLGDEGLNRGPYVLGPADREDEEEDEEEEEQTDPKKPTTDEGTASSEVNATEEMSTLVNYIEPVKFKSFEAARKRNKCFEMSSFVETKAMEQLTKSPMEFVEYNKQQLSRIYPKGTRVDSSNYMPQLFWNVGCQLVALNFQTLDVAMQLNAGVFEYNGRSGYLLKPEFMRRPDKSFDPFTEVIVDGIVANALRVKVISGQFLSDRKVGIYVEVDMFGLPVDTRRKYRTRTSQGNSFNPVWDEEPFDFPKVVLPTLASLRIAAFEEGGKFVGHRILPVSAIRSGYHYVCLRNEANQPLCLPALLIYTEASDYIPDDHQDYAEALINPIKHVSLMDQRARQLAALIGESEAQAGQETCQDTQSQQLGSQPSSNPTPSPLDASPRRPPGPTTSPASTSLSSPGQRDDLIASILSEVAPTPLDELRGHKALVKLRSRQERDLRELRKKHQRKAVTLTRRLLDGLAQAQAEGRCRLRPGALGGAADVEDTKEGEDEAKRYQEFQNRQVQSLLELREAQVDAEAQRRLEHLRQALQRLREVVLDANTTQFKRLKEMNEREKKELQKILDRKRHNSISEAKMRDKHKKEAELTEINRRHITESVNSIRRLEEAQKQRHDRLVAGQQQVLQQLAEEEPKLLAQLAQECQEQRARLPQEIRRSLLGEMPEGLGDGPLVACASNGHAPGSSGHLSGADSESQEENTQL

O=c1c(O)cccc2cc(O)c(O)c(O)c12 [PURPUROGALLIN]
AC50 [1]: 25.9 µM (active)
IC50 [2]: > 54 µM (active)
AC50 [3]: 1.61 µM (active)
IC50 [4]: > 123 µM (inactive)
